Here are results for 1 compound from EP0511791A2, “Pyrrolopyridine derivatives as Angiotensin inhibitors” (ZENECA LIMITED, priority 1991, dated 1992).

SMILES strings stand for the structures.

The subject of this assay is angiotensin II-induced pressor responses. Description: Test C: antagonism of angiotensin II-induced pressor responses in rats. The assay is classed as in vivo. To be noted: Rattus norvegicus, iv, i.v. administration. The protocol: Test C: This in vivo test involves using terminally-anaesthetised or conscious rats in which an arterial catheter has been implanted under anaesthesia for the measurement of changes in blood pressure. The All antagonistic effects of the test compound following oral or parenteral administration, are assessed against angiotensin II-induced pressor responses. To ensure that the effect is specific, the effect of the test compound on vasopressin-induced pressor responses may also be determined in the same preparation.

The ED50 is the midpoint of the dose-response relation. Lower therefore signals greater potency.

As for `Cc1cc2c(cc(C)n2Cc2ccc(-c3ccccc3-c3nnn[nH]3)cc2)c(Cl)n1.Cl` [Example 2, 4-chloro-2,6-dimethyl-1-[(2'-(1H-tetrazol-5-yl)biphenyl-4-yl)methyl]-1H-pyrrolo[3,2-c]pyridine hydrochloride], the ED50 was found to be 0.4 mg/kg.
